# Assay: Stain removal study on stained hydroxyapatite (HAP) disks, CIELAB ΔE
# Settings: test solution in artificial human saliva, one hour treatment, 15 ml/min, 37° C.; FIG. 2
# Experimental: A flow system was assembled for staining samples of hydroxyapatite (HAP) disks using a staining solution. The staining solution was prepared from a mixture containing tea, coffee and porcine gastric mucin. The staining solution was circulated through the flow system at a rate of about 15 ml/min, and passed continuously over the HAP disks for about 96 hours at about 37° C. After 96 hours, the stained HAP disks were then placed in artificial human saliva (as prepared in Example 5) at a pH of about 7, and were then rinsed and allowed to dry. The HAP disks were segregated into 6 sample groups. Each of the HAP disks were measured to yield a baseline L*a*b stain score in accordance with the Commission International de L'Eclairage Laboratory (CIELAB) color scale. The CIELAB scale quantifies color according to 3 parameters, L* (lightness-darkness scale), a* (red-green chroma), and b* (yellow-blue chroma). In order to obtain reproducible readings, the stained HAP disks were allowed to air-dry at room temperature for about 2 hours before measurement is to be made. The baseline stain measurements were taken by making diffuse reflectance absorbance readings with a Minolta spectrophotometer. The absorbance readings over the entire visible color spectrum were obtained for each HAP disk. […] The overall change in stain level ΔE was determined for each of the treated HAP disks.
row,SMILES,stain removing activity (ΔE)
1,CCCCCCCCCCCCCCCCCC(=O)[O-].[Na+] [sodium stearate],least stain removing activity
2,OC[C@H]1O[C@@H]2O[C@H]3[C@H](O)[C@@H](O)[C@@H](O[C@H]4[C@H](O)[C@@H](O)[C@@H](O[C@H]5[C@H](O)[C@@H](O)[C@@H](O[C@H]6[C@H](O)[C@@H](O)[C@@H](O[C@H]7[C@H](O)[C@@H](O)[C@@H](O[C@H]8[C@H](O)[C@@H](O)[C@@H](O[C@H]1[C@H](O)[C@H]2O)O[C@@H]8CO)O[C@@H]7CO)O[C@@H]6CO)O[C@@H]5CO)O[C@@H]4CO)O[C@@H]3CO [β-cyclodextrin],least stain removing activity

# Reference: patent publication US7641927B2, “Chewing gum and confectionery compositions containing a stain removing complex, and methods of making and using the same” (Cadbury Adams USA, LLC, priority 2006, dated 2010)
